Results from patent US20110268818A1, “NGAL-BINDING SIDEROPHORES AND USE THEREOF TO TREAT IRON DEFICIENCY AND IRON OVERLOAD” (priority 2008, published 2011).

B1: NGAL: Neutrophil Gelatinase Associated Lipocalin, recombinant protein (protein, UniProt P80188 21-198, looked up)
Neutrophil …: QDSTSDLIPAPPLSKVPLQQNFQDNQFQGKWYVVGLAGNAILREDKDPQKMYATIYELKEDKSYNVTSVLFRKKKCDYWIRTFVPGCQPGEFTLGNIKSYPGLTSYLVRVVSTNYNQHAMVFFKKVSQNREYFKITLYGRTKELTSELKENFIRFSKSLGLPENHIVFPVPIDQCIDG

Experiments:
NGAL [1] = molecular target: T1, NGAL (Homo sapiens, UniProt P80188); assay: Release of ligands and iron from NGAL complexes by acidification; format: physicochemical; settings: fluorescence and 55Fe release
T1 construct: made in house; host or cells: E. coli BL-21
Description: FIGS. 6A-6C. Release of ligands from NGAL by acidification. […] Fluorescence was quenched by ligand binding. Upon acidification, the ligands were released and fluorescence returned to baseline. Subsequent basification, where relevant, caused rebinding. Note that NGAL:pyrogallol and 2,3-dihydroxybenzoic acid complexes required much lower pH for dissociation. (B) Release of ^55Fe from different NGAL:catecholate complexes by low pH washes on a 10 KDa microcon. For this comparison, the retention of iron at pH7.0 was defined as 100%. […] Data were presented as mean±Std.
To transport iron from plasma to cells there has to be a mechanism for releasing iron from the complex. Intracellular delivery of iron by transferring is known to require passage through acidified endosomes where iron is released. […] While the complex was stable at neutral pH, acidification below pH 7.0 progressively reversed ligand-dependent fluorescence quenching of NGAL and released iron (FIG. 6A, B).
Fluorescence quenching binding assay. […] The pH was adjusted until the fluorescence signal stopped changing, while fluorescence values were corrected for dilution. Data were analyzed by a nonlinear regression analysis using a one-site binding model (Kuzmic, P. (1996). Program DYNAFIT for the analysis of enzyme kinetic data: application to HIV proteinase. Anal. Biochem. 237, 260-273). […]

[2] = Hydroxyl radicals detected by conversion of HPF to fluorescein; format: biochemical; settings: catechol, ferric iron and H2O2
Description: NGAL Blocks Iron Induced Hydroxyl Radicals. […] Hydroxyl radicals were detected by the conversion of HPF to fluorescein (Setsukinai, K., Urano, Y., Kakinuma, K., Majima, H. J., Nagano, T. (2003). Development of Novel Fluorescence Probes That Can Reliably Detect Reactive Oxygen Species and Distinguish Specific Species. J Biol Chem. 278, 170-3175) using […].

[3] = Catechol and iron traffic to the kidney in vivo; settings: mouse
[4] = Free catechol stability in solution monitored by NMR; format: physicochemical; settings: monitored for 20 hrs by NMR, D2O
Description: J. Agric Food Chem. 54, 5755-5762; Carmella, S. G., La, V. E. J., Hecht, S. S. (1982). […] Food Chem Toxicol. 20, 587-590) and aromatic amino acids (˜50%; Martin et al., 1982; Carmella et al., 1982; Bakke, O. M. (1969). Urinary simple phenols in rats fed purified and nonpurified diets. J. Nutr. 98, 209-216). […] Using urinary biomarkers to elucidate dose-related patterns of human benzene metabolism. Carcinogenesis 27, 772-781), whereupon they are sulfonated (Rennick, B., Quebbemann, A. (1970). Site of excretion of catechol and catecholamines: renal metabolism of catechol. Am. J. Physiol. 218, 1307-1312).

NGAL [5] = molecular target: T1, NGAL; assay: Fluorescence quenching binding assay; settings: with iron vs without iron
Experimental: Fluorescence quenching binding assay. […] The pH was adjusted until the fluorescence signal stopped changing, while fluorescence values were corrected for dilution. […] Control experiments were performed to ensure the stability of the protein at experimental conditions, including the dilution and the addition of DMSO and ubiquitin.

NGAL [6] = molecular target: T1, NGAL; assay: NGAL:siderophore:iron binding assay (retention on 10 kDa filter); settings: for NGAL-siderophore-Fe binding activity (in words): iron retention by NGAL on filter
Experimental: NGAL:Siderophore:Iron Binding Assays. […] After 60 minutes, the mixture was washed 3 times (YM-10) or alternatively gel filtered (PD-10, GE Biosciences). Ent loaded NGAL served as a positive control. Ferric citrate (1 mM) or Ent:iron (500 μM) served as competitors of ^55Fe binding.
After 60 minutes at room temperature, the mixture was then washed 3 times on a 10-kDa membrane (Amicon YM-10; Millipore Corp.). Ngal loaded with iron-free enterochelin (rather than apo-Ngal) served as a positive control for iron capture. Ferric citrate (1 mM) or iron-loaded enterochelin (siderophore:Fe, […]) was used as a competitor of 55Fe binding.

[7] = Reduction of Fe3+ to Fe2+ detected with phenanthroline; format: biochemical; settings: catechols 45 μM, ferric iron 15 μM, NGAL 15 μM

Molecule	pH at which the NGAL:ligand:iron complex dissociates (NGAL [1]) [pH]	conversion of HPF to fluorescein (hydroxyl radical formation) [2]	clearance of free 14C-catechol by organs [3]	stability of free catechol in solution [4]	increase in binding affinity for NGAL in the presence of iron (NGAL [5])	NGAL: Chelator: Fe % Retention (NGAL [6]; apoNGAL 10 μM, 55Fe, compound 10 μM, pH 7.4, washed on 10 kDa filter) [%]	NGAL-siderophore-Fe binding activity (in words) (NGAL [6])	NGAL-siderophore-Fe binding activity (in words) (NGAL [6]; listed as catechol)	reduction of ferric iron to ferrous iron (phenanthroline) [7]
Oc1ccccc1O [Catechol]	5.5	Conversion of HPF to fluorescein occurs	rapidly cleared	stable in solution	10^5	56	most active compound	highest activities	–
B1	–	blocked the reaction	–	–	–	–	–	–	blocked the reaction
